From article PMC8007111, “Novel Potent Muscarinic Receptor Antagonists: Investigation on the Nature of Lipophilic Substituents in the 5- and/or 6-Positions of the 1,4-Dioxane Nucleus” (Journal of Medicinal Chemistry, 2020) come the findings set out here.

Holding throughout (settings): [3H]NMS, CHO-K1 cell membranes; mean ± S.E.M.
The target of one assay is T1, hM2 mAChR (Homo sapiens, UniProt P08172).
T1 construct: expressed in transfected cells; host or cells: CHO-K1 (membrane preparation)
T1 sequence (P08172 1-466): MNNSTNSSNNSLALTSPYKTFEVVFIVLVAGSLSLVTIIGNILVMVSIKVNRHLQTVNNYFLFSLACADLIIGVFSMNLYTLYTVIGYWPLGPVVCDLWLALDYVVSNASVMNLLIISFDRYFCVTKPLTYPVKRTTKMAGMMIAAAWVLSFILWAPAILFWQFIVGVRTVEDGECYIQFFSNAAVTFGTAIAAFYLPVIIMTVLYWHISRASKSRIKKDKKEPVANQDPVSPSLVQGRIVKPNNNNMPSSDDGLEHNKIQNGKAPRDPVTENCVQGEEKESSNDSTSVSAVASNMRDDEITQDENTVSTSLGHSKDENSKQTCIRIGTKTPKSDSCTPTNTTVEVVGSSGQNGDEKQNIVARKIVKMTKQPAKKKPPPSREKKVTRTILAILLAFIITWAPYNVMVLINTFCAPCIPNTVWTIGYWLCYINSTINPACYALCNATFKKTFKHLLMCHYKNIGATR
The assay can be described thus: [3H]NMS inhibition radioligand binding, hM2 in CHO-K1 cell membranes. As for the experimental part:
(§1) CHO-K1 cells stably transfected with the human muscarinic receptor subtypes (hM1–5) were grown in Dulbecco’s modified Eagle’s medium (DMEM) with nutrient mixture F12 (DMEM/F12, 50/50), containing 10% fetal bovine serum, penicillin (100 U/mL), streptomycin (100 U/mL), L-glutamine (4 mM), and geneticin (G-418, 50 μg/mL) at 37 °C in a 5% CO2 humidified incubator. […] Serum (0.7 mL) was added to inactivate the trypsin, and the cells were spun down by centrifuging at 300g for 5 min. The cells were then resuspended in ice-cold 25 mM sodium phosphate buffer containing 5 mM MgCl2, pH 7.4 (binding buffer) and homogenized using a cell disrupter (Ultra-Turrax, setting 3, 30 s). The homogenate was sedimented by centrifugation (17,000g, 15 min). The supernatant was discarded, and the resulting membrane pellets were resuspended with Ultra-Turrax in the same buffer to give a final protein concentration of 1–2 mg/mL. The protein content was determined by the method of Bradford (1976) with bovine serum albumin (Sigma) as a standard and stored at −80 °C.
(§2) Inhibition radioligand binding assays were conducted as previously described[48],[49] with 0.2 nM [^3H]NMS in binding buffer in a final volume of 250 μL. Nonspecific binding was defined in the presence of 10 μM atropine. Briefly, membrane fractions (about 25–70 μg/mL of protein) were incubated with radioligand and unlabeled test compounds for 2 h at r.t. Bound and free radioactivity were separated by filtering the assay mixture through UniFilter GF/B plates using a FilterMate Cell Harvester (PerkinElmer Life and Analytical Science). The filter bound radioactivity was counted by a TopCount NXT Microplate Scintillation Counter (PerkinElmer Life and Analytical Science). Data (cpm) were normalized to percentage-specific binding and analyzed using a four-parameter logistic equation in GraphPad Prism 5.02; IC50 values were determined, and Ki values were calculated.[59]

In the next assay the target is T2, hM3 mAChR (Homo sapiens, UniProt P20309).
T2 construct: expressed in transfected cells; host or cells: CHO-K1 (membrane preparation)
The assay can be described thus: [3H]NMS inhibition radioligand binding, hM3 in CHO-K1 cell membranes. As for the experimental part: as §1, §2

A further assay has as its target T3, hM1 mAChR (Homo sapiens, UniProt P11229).
T3 construct: expressed in transfected cells; host or cells: CHO-K1 (membrane preparation)
T3 sequence (P11229 1-460): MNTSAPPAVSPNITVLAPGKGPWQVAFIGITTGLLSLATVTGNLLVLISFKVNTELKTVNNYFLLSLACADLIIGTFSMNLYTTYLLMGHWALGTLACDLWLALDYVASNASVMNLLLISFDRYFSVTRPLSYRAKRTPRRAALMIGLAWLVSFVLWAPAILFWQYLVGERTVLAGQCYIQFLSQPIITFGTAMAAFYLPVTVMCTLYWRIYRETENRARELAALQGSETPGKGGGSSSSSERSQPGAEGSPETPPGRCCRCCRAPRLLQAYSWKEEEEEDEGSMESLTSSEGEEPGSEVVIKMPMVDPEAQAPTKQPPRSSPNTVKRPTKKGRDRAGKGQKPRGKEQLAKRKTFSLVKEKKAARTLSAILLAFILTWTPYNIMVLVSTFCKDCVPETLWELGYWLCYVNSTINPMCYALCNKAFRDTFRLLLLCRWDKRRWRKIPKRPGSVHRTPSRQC
The assay is described as follows: [3H]NMS inhibition radioligand binding, hM1 in CHO-K1 cell membranes. As for the experimental part:
as §1, §2

In another assay the target is T4, hM5 mAChR (Homo sapiens, UniProt P08912).
T4 construct: expressed in transfected cells; host or cells: CHO-K1 (membrane preparation)
T4 sequence (P08912 1-532): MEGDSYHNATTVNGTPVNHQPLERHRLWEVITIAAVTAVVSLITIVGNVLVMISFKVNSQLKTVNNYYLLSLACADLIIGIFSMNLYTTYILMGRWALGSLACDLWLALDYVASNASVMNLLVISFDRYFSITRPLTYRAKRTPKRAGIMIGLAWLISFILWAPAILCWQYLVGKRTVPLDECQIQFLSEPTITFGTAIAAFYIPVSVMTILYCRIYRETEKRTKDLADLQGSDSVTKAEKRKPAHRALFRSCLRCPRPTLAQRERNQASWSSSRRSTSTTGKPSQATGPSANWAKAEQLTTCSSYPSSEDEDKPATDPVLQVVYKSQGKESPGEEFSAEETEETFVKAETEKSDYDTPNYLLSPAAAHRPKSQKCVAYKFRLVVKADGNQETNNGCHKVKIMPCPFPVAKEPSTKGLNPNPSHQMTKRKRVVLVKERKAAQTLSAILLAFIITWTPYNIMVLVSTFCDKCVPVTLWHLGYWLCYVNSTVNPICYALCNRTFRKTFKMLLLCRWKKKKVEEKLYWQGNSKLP
The assay can be described thus: [3H]NMS inhibition radioligand binding, hM5 in CHO-K1 cell membranes. As for the experimental part: as §1, §2

The next assay has as its target T5, hM4 mAChR (Homo sapiens, UniProt P08173).
T5 construct: expressed in transfected cells; host or cells: CHO-K1 (membrane preparation)
T5 sequence (P08173 1-479): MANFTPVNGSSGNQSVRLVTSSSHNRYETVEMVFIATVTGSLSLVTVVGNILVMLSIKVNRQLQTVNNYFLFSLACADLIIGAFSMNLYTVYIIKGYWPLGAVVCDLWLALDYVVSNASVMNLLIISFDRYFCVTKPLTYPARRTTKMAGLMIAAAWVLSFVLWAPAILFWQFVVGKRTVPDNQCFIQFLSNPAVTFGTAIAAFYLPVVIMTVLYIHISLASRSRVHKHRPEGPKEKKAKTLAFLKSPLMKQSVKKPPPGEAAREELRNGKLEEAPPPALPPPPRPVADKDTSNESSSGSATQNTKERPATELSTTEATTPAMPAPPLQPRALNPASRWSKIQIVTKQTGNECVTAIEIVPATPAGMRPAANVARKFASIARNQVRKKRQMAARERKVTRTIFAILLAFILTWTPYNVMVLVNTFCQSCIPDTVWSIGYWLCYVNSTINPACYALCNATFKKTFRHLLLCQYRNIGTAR
The assay can be described thus: [3H]NMS inhibition radioligand binding, hM4 in CHO-K1 cell membranes. As for the experimental part:
as §1, §2

SMILES strings stand for the structures.

T2 sequence (P20309 whole entry): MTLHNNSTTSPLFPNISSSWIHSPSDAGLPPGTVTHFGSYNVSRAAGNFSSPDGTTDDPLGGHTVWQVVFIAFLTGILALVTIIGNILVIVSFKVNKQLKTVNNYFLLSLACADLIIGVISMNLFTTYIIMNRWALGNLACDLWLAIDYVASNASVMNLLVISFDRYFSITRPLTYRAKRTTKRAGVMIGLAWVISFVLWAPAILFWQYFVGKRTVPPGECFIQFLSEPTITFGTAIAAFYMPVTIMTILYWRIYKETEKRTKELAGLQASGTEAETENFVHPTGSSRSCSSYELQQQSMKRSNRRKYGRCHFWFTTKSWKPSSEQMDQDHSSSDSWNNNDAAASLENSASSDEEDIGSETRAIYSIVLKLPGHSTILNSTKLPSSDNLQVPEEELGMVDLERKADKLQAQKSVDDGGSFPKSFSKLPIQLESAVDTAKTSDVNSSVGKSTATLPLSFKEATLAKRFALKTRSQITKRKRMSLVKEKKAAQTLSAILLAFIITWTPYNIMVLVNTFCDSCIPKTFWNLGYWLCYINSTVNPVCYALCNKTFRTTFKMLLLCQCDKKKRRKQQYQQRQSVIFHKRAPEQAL

`C[N+](C)(C)C[C@@H]1CO[C@@H](c2ccccc2)CO1.[I-]` (relative stereo) [9b, 1-((2R*,5S*)-5-Phenyl-1,4-dioxan-2-yl)-N,N,N-trimethylmethanaminium Iodide]: the “pKi hM2” value at hM2 mAChR was below 5. The “pKi hM3” value on hM3 mAChR is given as below 5. The “pKi hM1” value at hM1 mAChR is below 5. The “pKi hM5” value on hM5 mAChR is below 5. The “pKi hM4” value on hM4 mAChR is listed as below 5.
Turning to `C[N+](C)(C)C[C@@H]1CO[C@@](c2ccccc2)(C2CCCCC2)CO1.[I-]` (relative stereo) [11a, 1-((2R*,5R*)-5-Cyclohexyl-5-phenyl-1,4-dioxan-2-yl)-N,N,N-trimethylmethanaminium Iodide], at hM2 mAChR, the “pKi hM2” value is 7.26 ± 0.08. The “pKi hM3” value at hM3 mAChR worked out at 7.43 ± 0.09. Also, at hM1 mAChR, the “pKi hM1” value amounted to 8.01 ± 0.06. In addition, at hM5 mAChR, the “pKi hM5” value was determined as 7.45 ± 0.08. The “pKi hM4” value on hM4 mAChR was determined as 7.15 ± 0.09.
In the same order, the values of `C[N+](C)(C)C[C@@H]1CO[C@](c2ccccc2)(C2CCCCC2)CO1.[I-]` (relative stereo) [11b, 1-((2R*,5S*)-5-Cyclohexyl-5-phenyl-1,4-dioxan-2-yl)-N,N,N-trimethylmethanaminium Iodide] are 7.22 ± 0.11, 7.36 ± 0.10, 7.81 ± 0.04, 7.32 ± 0.09 and 7.23 ± 0.10.
For `C[N+](C)(C)C[C@@H]1CO[C@H](C(c2ccccc2)c2ccccc2)CO1.[I-]` (relative stereo) [12a, 1-((2R*,5R*)-5-Benzhydryl-1,4-dioxan-2-yl)-N,N,N-trimethylmethanaminium Iodide], at hM2 mAChR, the “pKi hM2” value came out at 5.87 ± 0.09. Also, the “pKi hM3” value at hM3 mAChR was determined as 5.77 ± 0.03. Moreover, the “pKi hM1” value on hM1 mAChR was determined as 6.28 ± 0.08. Also, at hM5 mAChR, the “pKi hM5” value worked out at 5.49 ± 0.06. Besides, the “pKi hM4” value on hM4 mAChR was determined as 5.60 ± 0.06.
For the compound `C[N+](C)(C)C[C@@H]1CO[C@@H](C(c2ccccc2)c2ccccc2)CO1.[I-]` (relative stereo) [12b, 1-((2R*,5S*)-5-Benzhydryl-1,4-dioxan-2-yl)-N,N,N-trimethylmethanaminium Iodide], at hM2 mAChR, the “pKi hM2” value was 6.06 ± 0.08. For the same compound, at hM3 mAChR, the “pKi hM3” value is 5.62 ± 0.11. In addition, on hM1 mAChR, the “pKi hM1” value was found to be 6.08 ± 0.07. In addition, on hM5 mAChR, the “pKi hM5” value came out at 5.20 ± 0.01. Also, the “pKi hM4” value on hM4 mAChR is recorded as 5.52 ± 0.06.
As to `C[N+](C)(C)C[C@@H]1CO[C@H](c2ccc(-c3ccccc3)cc2)CO1.[I-]` (relative stereo) [13a, 1-((2R*,5R*)-5-([1,1′-Biphenyl]-4-yl)-1,4-dioxan-2-yl)-N,N,N-trimethylmethanaminium Iodide], at hM2 mAChR, the “pKi hM2” value is given as below 5. Besides, the “pKi hM3” value at hM3 mAChR is recorded as below 5. Further, the “pKi hM1” value on hM1 mAChR is below 5. For the same compound, the “pKi hM5” value at hM5 mAChR is reported as below 5. In addition, the “pKi hM4” value on hM4 mAChR is listed as below 5.
Take `C[N+](C)(C)C[C@@H]1CO[C@@H](c2ccc(-c3ccccc3)cc2)CO1.[I-]` (relative stereo) [13b, 1-((2R*,5S*)-5-([1,1′-Biphenyl]-4-yl)-1,4-dioxan-2-yl)-N,N,N-trimethylmethanaminium Iodide]: the “pKi hM2” value on hM2 mAChR was 5.49 ± 0.02. Also, on hM3 mAChR, the “pKi hM3” value is below 5. For the same compound, the “pKi hM1” value on hM1 mAChR is below 5. The “pKi hM5” value at hM5 mAChR is below 5. The “pKi hM4” value at hM4 mAChR is listed as below 5.
In the case of `C[N+](C)(C)C[C@@H]1CO[C@H](c2ccc(Cc3ccccc3)cc2)CO1.[I-]` (relative stereo) [14a, 1-((2R*,5R*)-5-(4-Benzylphenyl)-1,4-dioxan-2-yl)-N,N,N-trimethylmethanaminium Iodide], the “pKi hM2” value on hM2 mAChR turned out to be 5.65 ± 0.05. On hM3 mAChR, the “pKi hM3” value worked out at 5.65 ± 0.12. On hM1 mAChR, the “pKi hM1” value was below 5. In addition, the “pKi hM5” value on hM5 mAChR was found to be 5.53 ± 0.13. Besides, the “pKi hM4” value at hM4 mAChR is reported as below 5.
As to `C[N+](C)(C)C[C@@H]1CO[C@@H](c2ccc(Cc3ccccc3)cc2)CO1.[I-]` (relative stereo) [14b, 1-((2R*,5S*)-5-(4-Benzylphenyl)-1,4-dioxan-2-yl)-N,N,N-trimethylmethanaminium Iodide], on hM2 mAChR, the “pKi hM2” value is below 5. For the same compound, the “pKi hM3” value at hM3 mAChR was below 5. In addition, on hM1 mAChR, the “pKi hM1” value is on record as below 5. Further, the “pKi hM5” value at hM5 mAChR is reported as below 5. Moreover, on hM4 mAChR, the “pKi hM4” value is reported as below 5.
With `C[N+](C)(C)C[C@@H]1CO[C@H](c2ccc(Sc3ccccc3)cc2)CO1.[I-]` (relative stereo) [15a, 1-((2R*,5R*)-5-(4-(Phenylthio)phenyl)-1,4-dioxan-2-yl)-N,N,N-trimethylmethanaminium Iodide], the “pKi hM2” value at hM2 mAChR is 6.70 ± 0.13. Further, the “pKi hM3” value on hM3 mAChR was found to be 6.01 ± 0.11. The “pKi hM1” value at hM1 mAChR was 5.43 ± 0.09. Besides, the “pKi hM5” value at hM5 mAChR stood at 6.00 ± 0.14. The “pKi hM4” value on hM4 mAChR came out at 5.70 ± 0.01.
On to `C[N+](C)(C)C[C@@H]1CO[C@@H](c2ccc(Sc3ccccc3)cc2)CO1.[I-]` (relative stereo) [15b, 1-((2R*,5S*)-5-(4-(Phenylthio)phenyl)-1,4-dioxan-2-yl)-N,N,N-trimethylmethanaminium Iodide], for which, at hM2 mAChR, the “pKi hM2” value came to 5.86 ± 0.04. Further, on hM3 mAChR, the “pKi hM3” value came out at 5.35 ± 0.06. In addition, the “pKi hM1” value on hM1 mAChR is 5.57 ± 0.07. Further, at hM5 mAChR, the “pKi hM5” value is 5.40 ± 0.15. Also, at hM4 mAChR, the “pKi hM4” value was found to be 5.14 ± 0.01.
